Counter-ions that a name gives are not always drawn. Like-named read-outs stand apart in the source and are kept apart here.
Key:
[1] = target: T1, hCB2 (Homo sapiens, UniProt P34972); assay: CB2 in vitro functional assay (SPA based GTP-γ-35S binding, agonist mode); assay type: biochemical
Procedure: (§1) Exemplified compounds are tested in agonist mode using a SPA based GTP-γ-^35S binding assay. All assay components are prepared in assay buffer made up of 20 mM HEPES, 100 mM NaCl, 5 mM MgCl2, (pH 7.4 at room temperature). Semi-log compound dilutions are done in assay buffer containing BSA (final 0.125%). GTP-γ^35-S binding is measured in a 96 well format using a whole membrane capture technique for the CB1 assay and modifications of an antibody capture technique previously described (DeLapp et al. J Pharmacol Exp Ther 289:946-955, 1999) for the CB2 assay. All incubations are done at room temperature.
hCB2-Sf9 membranes and GDP (1 uM final) are added to assay buffer and homogenized. Diluted compounds and membranes are added to the assay plate and pre-incubated for 15 minutes. This is followed by addition of GTP-γ-^35S ([…] final) and another 35 minute incubation. Next a mixture containing Nonidet P40 detergent (0.2% final), anti-Gi antibody (final dilution of 1:362), and 1.25 mg anti-rabbit antibody scintillation proximity assay beads are added. The plates are then sealed, vortexed, and incubated for an additional 2 hours before centrifuging and counting as for CB1.
To analyze data, first subtract background from all wells. Determine percent agonist efficacy by normalizing agonist/inverse agonist dose response data to a full agonist (methanandamide) response. […]

[2] = target: T2, hCB1 (Homo sapiens, UniProt P21554); assay: CB1 in vitro functional assay (SPA based GTP-γ-35S binding, agonist mode); assay type: biochemical
T2 construct: expressed in transfected cells; host or cells: CHO cells (membranes)
Procedure: as §1
hCB1-CHO membranes, GDP (1 uM final), and saponin (10 ug/mL final) are added to assay buffer and homogenized. Diluted compounds, GTP-γ-^35S (500 nM final) and membranes are added to the assay plate and incubated for 30 minutes. Then 1 mg/well Wheatgerm Agglutinin SPA bead is added, and the plates are sealed, vortexed, and incubated for an additional hour. Plates are then centrifuged at 700×g for 10 minutes and counted for 1 minute per well using a scintillation counter.
To analyze data, first subtract background from all wells. Determine percent agonist efficacy by normalizing agonist/inverse agonist dose response data to a full agonist (methanandamide) response. Analyze the data using a 4-parameter logistic reduced fit with Activity Base and XLFit3.

[3] = tested on: male Lewis rats; assay: Monoiodoacetate (MIA) model, incapacitance testing; assay type: in vivo; details: rat, single dose
Procedure: For all studies male Lewis rats of approximately 8 weeks of age at the time of MIA injection are used to measure pain in the MIA model. The rats are housed in groups of 2 or 3 per cage and maintained in a constant temperature and on a 12 hour light/12 hour dark cycle. Animals have free access to food and water at all times except during data collection.
In the standard MIA model the right knees of each rat are injected with 0.3 mg MIA in 50 ul of saline and the left knees with 50 ul of saline. Pain is measured at varying times after MIA injection (not normally before 10 day post MIA injection) using incapacitance testing. This measures the difference in hind paw weight bearing between the MIA and saline injected knees, and each measurement is the average of 3 separate measurements each measured over 1 second.
For studies with CB2 agonists rats are randomized into dose groups (n=5 or 6) and then dosed once with the compound under investigation. Dosing is staggered by 15 minutes for each rat and at a predetermined time post-dose (usually 2 hours), pain measured using incapacitance testing. Studies are routinely run with 4 groups, vehicle (1% carboxy methyl cellulose in water plus 0.25% polysorbate 80) and 3 compound groups which can be either single compounds at a single dose or the same compound at 3 doses. Results are reported as the difference in weight bearing between saline and MIA injected knees and statistical comparisons are made between vehicle treated and compound treated animals to assess the effect of compounds on knee pain in the model.

[4] = tested on: Male Harlan Sprague Dawley rats; assay: Chemotherapy-induced pain assay (paclitaxel, von Frey); assay type: in vivo, rat; details: for Mean paw withdrawal latencies (mean ± SE): 1 hour post-dose, n of 12
Procedure: Male Harlan Sprague Dawley rats 150-200 grams are acclimated to the vivarium for 7 days. The animals are maintained in a constant temperature and on a 12 hour light/12 hour dark cycle, and housed in groups of 3-4 with water and food ad libitum. Twice daily dosing of compound at 10 mg/kg (oral), morphine at 5 mg/kg, and vehicle commences on Day 1 of the study, and continues through the duration of the study (Day 18). Paclitaxel at 1 mg/kg (intraperitoneal) is administered on Days 2, 4, 6, and 8, for a cumulative dose of 4 mg/kg in order to induce chemotherapy-induced peripheral neuropathy.
Rats are placed in individual plexiglass chambers with a wire mesh platform bottom to allow access to the hindpaw. After an acclimation period of 15 minutes to 1 hour, the mid-plantar hind paws are assessed within the sciatic nerve distribution. A series of 8 von Frey hairs with logarithmically incremental stiffness (0.41, 0.70, 1.20, 2.00, 3.63, 5.50, 8.50, and 15.10 g) are applied to the hind paws. The von Frey hairs are presented perpendicular to the plantar surface with sufficient force to cause slight bending. Stimuli are presented at intervals of several seconds. A positive response is noted if the paw is sharply withdrawn or if flinching immediately upon removal of the hair is observed. On study days, behavioral endpoints are evaluated 1 hour post-dose. Score patterns are evaluated using the Dixon up-down method, and translated to a response threshold (1980, Ann Rev Pharmacol Toxicol 20:441-462). The maximum applied force is 15.10 grams. The initial behavior assessment occurs on Day 10 of the study, and subsequent measures are made on Study Days 12, 15, and 18.
Results are expressed as mean values with standard errors of the mean (mean±SE) for an n of 12 per group. All statistical evaluations are conducted utilizing a one-way ANOVA followed by comparison to the control group by Dunnett's Method. Statistical significance is assumed when p<0.05. Statistical analyses are performed using JMP statistical analysis software (SAS Research Institute, version 6.0.2).

[5] = target: T1, hCB2; assay: Displacement of 3H-CP55940 from human CB2 receptors; assay type: binding; set-up: expressed in transfected cells; details: 3H-CP55940 displacement
Procedure: (§2) The methods of Felder et al. (Mol. Pharmaocol. 48:443-450, 1995) were utilized with minor modifications. Specifically, membrane homogenates from cells stably or transiently expressing the human or rat CB2 receptor were washed by centrifugation and diluted into a 50 mM Tris HCl (pH 7.4), 5 mM MgCl2, 2.5 mM EDTA, and 0.1% BSA buffer. Specific binding of 3H-CP55940 was defined with 1 μM CP55940. The ability of compounds to displace specific 3H-CP55940 binding was tested over a range of concentrations in the Tris, MgCl2, EDTA, BSA buffer in the presence of 1% dimethyl sulfoxide by incubating at room temperature for 90 minutes in a volume of 300 μl. Unifilter 96-well microplates pretreated with 0.5% polyvinylpyrrolidone, 0.1% polysorbate 20 in water were washed three times with cold Tris buffer. The reaction mixture was then transferred to the filter plate immediately before terminating the incubation by rapid filtration and three 200 μl washes with cold Tris buffer. After the filter plates dried, microscint 20 was added to each well, the plate sealed and counted for determination of disintegrations per minute. The displacement curves were graphed and the resulting Ki values determined utilizing Graphpad Prism.

[6] = target: T3, rat CB2 receptor (Rattus norvegicus, UniProt Q9QZN9); assay: Displacement of 3H-CP55940 from rat CB2 receptors; assay type: binding
T3 construct: expressed in transfected cells
T3 sequence (Q9QZN9 1-360): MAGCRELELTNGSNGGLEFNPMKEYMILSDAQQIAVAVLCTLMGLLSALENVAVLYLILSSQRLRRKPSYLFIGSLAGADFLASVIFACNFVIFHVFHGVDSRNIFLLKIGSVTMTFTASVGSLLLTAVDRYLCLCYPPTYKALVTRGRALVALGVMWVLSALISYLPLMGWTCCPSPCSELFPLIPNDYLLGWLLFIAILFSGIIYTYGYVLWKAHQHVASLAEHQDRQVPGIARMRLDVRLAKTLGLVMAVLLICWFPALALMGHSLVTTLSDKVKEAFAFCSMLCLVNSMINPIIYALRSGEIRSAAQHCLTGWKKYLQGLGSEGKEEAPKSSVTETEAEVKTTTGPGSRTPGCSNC
Procedure: as §2

[7] = tested on: beagle dog; assay: Dose-ranging toxicity study in beagle dogs; assay type: in vivo; details: single oral dose of 30 mg/kg
Procedure: (§3) One male and one female beagle dog are used to evaluate the acute toxicity after a single oral gavage dose of CB2 agonist. The dogs are housed individually and maintained in a constant temperature and on a 12 hour light/12 hour dark cycle. CB2 agonist is prepared in vehicle (1% hydroxyethylcellulose, 0.25% polysorbate 80, and 0.05% Dow Corning® Antifoam 1510-US in purified water) and administered by oral gavage at a dose volume of 2 mL/kg. Dogs are observed for mortality and clinical observations (before dosing, 2 hours postdose, in the afternoon and daily thereafter). Food consumption is assessed by daily visual assessment of food remaining. Blood is collected before dosing and 48 hours after dosing to evaluate effects on haematology and clinical chemistry parameters. Blood is collected at 0.5, 1, 2, 4, 8, and 24 hours postdose to evaluate toxicokinetic plasma drug concentrations.

[8] = Dose-ranging toxicity study in beagle dogs; assay type: in vivo, dog; details: both sexes, beagle, dog, 30 mg/kg single oral dose, plasma
Procedure: as §3

T1 sequence (P34972 whole entry): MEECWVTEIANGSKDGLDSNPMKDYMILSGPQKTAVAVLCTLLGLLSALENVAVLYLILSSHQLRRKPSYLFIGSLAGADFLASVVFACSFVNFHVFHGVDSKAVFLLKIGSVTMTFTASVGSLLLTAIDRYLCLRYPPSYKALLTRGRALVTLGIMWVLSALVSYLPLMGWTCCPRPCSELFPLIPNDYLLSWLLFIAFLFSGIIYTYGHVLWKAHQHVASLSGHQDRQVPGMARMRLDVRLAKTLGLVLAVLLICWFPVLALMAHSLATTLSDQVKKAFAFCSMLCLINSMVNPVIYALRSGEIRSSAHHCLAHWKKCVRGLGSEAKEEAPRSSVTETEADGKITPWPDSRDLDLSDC
T2 sequence (P21554 whole entry): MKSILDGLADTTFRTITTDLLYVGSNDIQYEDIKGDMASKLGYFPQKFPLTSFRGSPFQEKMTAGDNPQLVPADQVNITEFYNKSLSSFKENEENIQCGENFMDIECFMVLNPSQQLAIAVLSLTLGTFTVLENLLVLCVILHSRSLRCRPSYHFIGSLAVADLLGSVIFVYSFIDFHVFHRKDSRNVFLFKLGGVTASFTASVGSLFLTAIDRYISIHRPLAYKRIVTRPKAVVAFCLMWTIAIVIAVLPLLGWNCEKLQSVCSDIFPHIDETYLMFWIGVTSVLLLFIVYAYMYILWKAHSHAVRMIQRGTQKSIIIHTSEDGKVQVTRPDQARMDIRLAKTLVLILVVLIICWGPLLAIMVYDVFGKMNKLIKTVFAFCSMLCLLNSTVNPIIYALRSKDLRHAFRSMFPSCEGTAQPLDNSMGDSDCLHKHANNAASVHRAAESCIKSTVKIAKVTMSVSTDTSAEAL

COCCCn1c(-c2ccccc2Cl)nc2c(N3CCN(CCF)CC3)nc(C)nc21 [Example 6, 8-(2-Chlorophenyl)-6-[4-(2-fluoroethyl)piperazin-1-yl]-9-(3-methoxypropyl)-2-methyl-purine hydrochloride]
EC50 [1]: 2.7 nM | EC50 [2]: > 100 µM

Cc1nc(N2CCN(C)CC2)c2nc(-c3ccccc3Cl)n(C(C)CO)c2n1.Cl (single isomer, unassigned; isomer 1) [Example 18, 2-[8-(2-Chloro-phenyl)-2-methyl-6-(4-methyl-piperazin-1-yl)-purin-9-yl]-propan-1-ol hydrochloride, Isomer 1]
pain versus vehicle (difference in hind paw weight bearing) ([3]; dose of 0.3 mg/kg): reduce pain versus vehicle

CN1CC[C@]23c4c5ccc(O)c4O[C@H]2[C@@H](O)C=C[C@H]3[C@H]1C5 [Morphine, reference compound]
Mean paw withdrawal latencies (mean ± SE) ([4]; Day 10, 5 mg/kg twice daily): 8.16 ± 1.22 | Mean paw withdrawal latencies (mean ± SE) ([4]; Day 12, 5 mg/kg twice daily): 3.67 ± 0.30 | Mean paw withdrawal latencies (mean ± SE) ([4]; Day 15, 5 mg/kg twice daily): 3.84 ± 0.45 | Mean paw withdrawal latencies (mean ± SE) ([4]; Day 18, 5 mg/kg twice daily): 3.46 ± 0.42

CC(=O)N1CCN(c2nc(C)nc3c2nc(-c2ccccc2Cl)n3CC(C)(C)O)CC1 [Example 13, 1-[4-[8-(2-Chlorophenyl)-9-(2-hydroxy-2-methyl-propyl)-2-methyl-purin-6-yl]piperazin-1-yl]ethanone hydrochloride]
Ki [5]: 65.2 nM | Ki ([6]; 3H-CP55940 displacement, rat CB2, read-out: rat receptor Ki value): 215 nM

COC(C)(C)Cn1c(-c2ccccc2Cl)nc2c(N3CCN(C(C)=O)CC3)nc(C)nc21 [Example 8, 1-[4-[8-(2-Chlorophenyl)-9-(2-methoxy-2-methyl-propyl)-2-methyl-purin-6-yl]piperazin-1-yl]ethanone]
Ki [5]: 142 nM | Ki [6]: 37.5 nM

Cc1nc(N2CCN(C)CC2)c2nc(-c3ccccc3Cl)n(C(C)CO)c2n1.Cl (single isomer, unassigned; isomer 2) [Example 19, 2-[8-(2-Chloro-phenyl)-2-methyl-6-(4-methyl-piperazin-1-yl)-purin-9-yl]-propan-1-ol hydrochloride, Isomer 2]
pain versus vehicle (difference in hind paw weight bearing) ([3]; dose of 0.3 mg/kg): reduce pain versus vehicle | pain versus vehicle (difference in hind paw weight bearing) ([3]; dose of 1 mg/kg): reduce pain versus vehicle | EC50 ([1]; agonist mode, hCB2-Sf9 membranes, read-out: relative EC50 value for CB2): 22.4 nM | EC50 ([2]; agonist mode, hCB1-CHO membranes, read-out: relative EC50 value for CB1): > 100 µM | allodynia compared to both vehicle and morphine-treated animals ([4]; 10 mg/kg oral twice daily, over the duration of the study (Day 18)): developed less allodynia | Mean paw withdrawal latencies (mean ± SE) ([4]; Day 10, 10 mg/kg oral twice daily): 11.25 ± 1.31 | Mean paw withdrawal latencies (mean ± SE) ([4]; Day 12, 10 mg/kg oral twice daily): 7.38 ± 0.95 | Mean paw withdrawal latencies (mean ± SE) ([4]; Day 15, 10 mg/kg oral twice daily): 7.90 ± 1.04 | Mean paw withdrawal latencies (mean ± SE) ([4]; Day 18, 10 mg/kg oral twice daily): 6.02 ± 0.72 | faeces ([7]; female dog): Decreased faeces | food consumption ([7]; female dog): minimal decreased food consumption | decrease in reticulocyte count, change relative to pre-dose ([7]; female dog, 48 hours after dosing): 39% | Post-dose clinical observations ([7]; one male and one female dog): limited to vomiting and dilated pupils | AUC(0-t) ([8]; read-out: mean Area-Under the Curve from 0-24 hours (AUC0-24hr)): 44500 ng·h/mL | Cmax ([8]; read-out: mean maximum concentration (Cmax)): 7540 ng/mL

— US8759360B2, “Purine compounds” (Eli Lilly and Company, priority 2010, dated 2014)
